What follows are molecules tested on HL-60 cells / activated platelets (P-selectin) (assay: HL-60 Platelet Cell Adhesion Assay). Conditions: HL-60 cell adhesion to thrombin-activated human platelets.
Assay type: cell-based
Description: HL-60 cells, obtained from American Type Culture Collection, were cultured in RPMI 1640 medium (GIBCO) supplemented with 20% fetal calf serum (Sigma) and 50 μg/ml gentamicin (GIBCO). Cells in log phase growth were harvested, washed and resuspended in Tyrodes buffer containing 5 mM HEPES and 0.2% bovine serum albumin and were fixed with 1% buffered formalin.
Blood from normal human donors was anticoagulated with citrate, layered over 1-Step Platelets (Accurate Chemical Co.), and centrifuged at 350 g for 20 minutes at room temperature. The platelet band was collected, diluted in 2 volumes of Tyrode's Buffer with 5 mM HEPES, 10 mM EDTA, and 0.2% BSA (pH 7.4) (THEB) and centrifuged at 600 g for 10 minutes. The platelet pellet was resuspended in THEB and incubated at room temperature for 1 hour. Calcein-acetoxy methylester (Calcein-Am, Molecular Probes) was added to the platelets at a final concentration of 10 μM and incubated for 10 minutes at 37° C. to label the platelets. Without washing, the platelets were counted on a Coulter counter model ZM, and the concentration was adjusted to 1×10^7 /ml. The platelets were activated with 2 U/ml of human thrombin for 10 minutes in Tyrode's containing 2 mM CaCl2, 5 mM HEPES, and 0.2% BSA (pH 7.4) (THB) at 37° and immediately fixed with 1% buffered formalin for 1 to 2 hours at room temperature. A small aliquot of labeled platelets was removed before activation and designated as non-activated.
Both platelets and HL-60 were washed in a ≥5 fold excess volume of Hanks Balanced Salt Solution (HBSS), resuspended in THB and counted. Cell concentrations were adjusted to 2×10^7 /ml for platelets and 4×10^6 /ml for HL-60, this ratio determined to be optimum for platelet: HL-60 cell adhesion. Compounds were incubated with 50 μl of platelets for 30 minutes at room temperature before addition of 50 μl of HL-60. This ratio of 5:1 platelets to HL-60 was incubated for 30 minutes at room temperature before addition of 0.2 ml of THB to increase the volume so the samples could be analyzed on a FACScan cytometer (Becton Dickinson). Non-activated platelets, and activated platelets with 10 mM EDTA were included as controls. Data were collected within a region set for the forward scatter channel corresponding to HL-60 size events.
The percent HL-60 cells which contained bound platelets was determined for each test condition. The inhibition of binding was determined by comparison to standards which were treated with vehicle alone (representing 0% inhibition) and standards whose specific binding had been blocked by the use of EDTA (representing 100% inhibition), by the following formula: [formula] where x=HL-60 cells containing bound platelets in the presence of the compound;
b=HL-60 cells containing bound platelets in the presence of EDTA;
a=HL-60 cells containing bound platelets in presence of compound vehicle;
z=% inhibition of platelet: HL-60 cell adhesion

Q: `CCCCCCCCCCCCC/C=C/[C@@H](OC(=O)c1ccccc1)[C@H](CO[C@H]1O[C@H](COCC(=O)O)[C@H](OCC(=O)O)[C@H](OC(=O)c2ccccc2)[C@H]1OC(=O)c1ccccc1)NC(=O)CCCCCCCCCCCCCCC` [Example 2, (2S,3R,4E)-3-Benzoyloxy-2-hexadecanoylamino-1-[2,3-di-O-benzoyl-4,6-di-O-carboxymethyl-α-D-galactopyranosyloxy]-4-octadecene] was tested. Which IC50 did it give?
A: 32 µM

Q: Which IC50 does the source give for `CCCCCCCCCCCCC/C=C/[C@@H](OC(=O)c1ccccc1)[C@H](CO[C@@H]1O[C@H](COCC(=O)O)[C@H](OCC(=O)O)[C@H](OC(=O)c2ccccc2)[C@H]1OC(=O)c1ccccc1)NC(=O)CCCCCCCCCCCCCCC` [Example 16, (2S,3R,4E)-2-Hexadecanoylamino-3-benzoyloxy-1-(4,6-di-O-carboxymethyl-2,3-di-O-benzoyl-β-D-galactopyranoside)-4-octadecene] here?
A: 10.1 µM

Q: Which IC50 does the source give for `CCCCCCCCCCCCC/C=C/[C@@H](OC(=O)c1ccccc1)[C@H](CO[C@@H]1O[C@H](COCC(=O)O)[C@H](OCC(=O)O)[C@H](OC(=O)c2ccccc2)[C@H]1O)NC(=O)CCCCCCCCCCCCCCC` [Example 18, (2S,3R,4E)-3-Benzoyloxy-2-hexadecanoylamino-1-[3-O-benzoyl-4,6-di-O-carboxymethyl-β-D-galactopyranosyloxy]-4-octadecene] here?
A: 7 µM

Q: Which IC50 does the source give for `CCCCCCCCCCCCC/C=C/[C@@H](OC(=O)c1ccccc1)[C@H](CO[C@H]1O[C@H](COCC(=O)O)[C@H](OCC(=O)O)[C@H](O)[C@H]1OC(=O)c1ccccc1)NC(=O)CCCCCCCCCCCCCCC` [Example 14, (2S,3R,4E)-3-Benzoyloxy-2-hexadecanoylamino-1-[2-O-benzoyl-4,6-di-O-carboxymethyl-α-D-galactopyranosyloxy]-4-octadecene] here?
A: 20 µM

Q: With `CCCCCC/C=C/[C@@H](OC(=O)c1ccccc1)[C@H](CO[C@H]1O[C@H](COCC(=O)O)[C@H](OCC(=O)O)[C@H](OC(=O)c2ccccc2)[C@H]1OC(=O)c1ccccc1)NC(=O)CCCCCCCCC(=O)OC` [Example 8, (2S,3R,4E)-3-Benzoyloxy-2-(9-methoxycarbonyl-nonanoylamino)-1-(2,3-di-O-benzoyl-4,6-di-O-carboxymethyl-α-D-galactopyranosyloxy)-4-undecene] as the molecule, how does the IC50 read?
A: > 100 µM

From patent publication US5686426A, “Dicarboxymethylated glycolipid derivatives as cell adhesion inhibitors” (Bristol-Myers Squibb Company, priority 1994, dated 1997)
